Earlier results as cited in patent US9433620B2, “Pharmaceutical compositions of lurasidone” (CADILA HEALTHCARE LIMITED, priority 2011, dated 2016).
Counter-ions that a name gives are not always drawn.

solubility in water: less than several
SMILES: O=C1[C@@H]2[C@H]3CC[C@H](C3)[C@@H]2C(=O)N1C[C@@H]1CCCC[C@H]1CN1CCN(c2nsc3ccccc23)CC1 [lurasidone, N-[4-[4-(1,2-benzisothiazol-3-yl)-1-piperazinyl]-(2R,3R)-2,3-tetramethyle-ne-butyl]-(1′R,2′S,3′R,4′S)-2,3-bicyclo[2,2,1]heptanedicarboxylmide hydrochloride]
